These results are taken from patent US20090197856A1, “ANTIVIRAL COMPOUNDS” (Genelabs Technologies, Inc., priority 2007, published 2009).

The target in the test is T1, NS5B (Hepatitis C virus genotype 1b, UniProt Q9WMX2).
T1 construct: 3 nM NS5B, 20 nM polyC RNA template
As to the kind of experiment: Polymerase assay, incorporation of radiolabeled GTP with biotinylated oligoG13 primer and polycytidylic acid RNA template. Type of test: biochemical. The conditions noted are these: polyC RNA template, biotin-oligoG13 primer, tritiated GTP, 3 nM NS5B, 30° C., 2 hours. As for the experimental part:
The polymerase activity was also assayed by measuring incorporation of radiolabeled GTP into an RNA product using a biotinylated oligoG13 primer with a polycytidylic acid RNA template. Typically, the assay mixture (40 μL) contains 50 mM HEPES (pH 7.3), 2.5 mM magnesium acetate, 2 mM sodium chloride, 37.5 mM potassium acetate, 5 mM DTT, 0.4 U/mL RNasin, 2.5% glycerol, 3 nM NS5B, 20 nM polyC RNA template, 20 nM biotin-oligoG13 primer, and 0.2 μM tritiated guanosine triphosphate. Test compounds were initially dissolved and diluted in 100% DMSO and further diluted into aqueous buffer, producing a final concentration of 5% DMSO. Typically, compounds were tested at concentrations between 0.2 nM and 10 μM. Reactions were started with addition of tritiated guanosine triphosphate and allowed to continue at 30° C. for 2 hours. Reactions were quenched with 100 μL stop buffer containing 10 mM EDTA and 1 μg/mL streptavidin-coated scintillation proximity beads. Reaction plates were incubated at 4° C. for 10 hours and then incorporation of radioactivity was determined by scintillation counting. The table below lists the IC50 values of compounds determined using this procedure.

Each structure is given as a SMILES string.

T1 sequence (Q9WMX2 2420-3010): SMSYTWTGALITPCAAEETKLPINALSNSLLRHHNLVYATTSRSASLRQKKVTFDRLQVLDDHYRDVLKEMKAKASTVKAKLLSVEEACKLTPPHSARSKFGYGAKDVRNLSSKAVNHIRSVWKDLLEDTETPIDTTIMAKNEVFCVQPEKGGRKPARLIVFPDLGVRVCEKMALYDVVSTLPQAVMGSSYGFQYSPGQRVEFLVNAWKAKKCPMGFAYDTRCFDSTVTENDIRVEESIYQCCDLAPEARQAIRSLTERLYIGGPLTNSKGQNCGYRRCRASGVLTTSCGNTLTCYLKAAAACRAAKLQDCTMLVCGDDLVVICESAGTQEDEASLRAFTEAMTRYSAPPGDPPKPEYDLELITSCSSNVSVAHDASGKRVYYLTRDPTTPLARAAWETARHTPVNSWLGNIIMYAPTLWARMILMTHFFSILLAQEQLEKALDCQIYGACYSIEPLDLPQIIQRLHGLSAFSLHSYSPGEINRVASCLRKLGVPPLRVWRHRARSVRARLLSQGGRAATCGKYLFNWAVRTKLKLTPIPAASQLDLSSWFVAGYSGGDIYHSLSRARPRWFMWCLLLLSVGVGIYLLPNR

As for `CC1(C)CN2CCCn3c(c(C4CCCCC4)c4ccc(C(=O)O)cc43)-c3cccc1c32` [Compound 271, 12-cyclohexyl-1,1-dimethyl-1,2,5,6-tetrahydro-4H-[1,5]diazocino[1,2-a:5,4,3-h′i′]diindole-9-carboxylic acid], the half-maximal inhibitory concentration (IC50) amounted to 15 nM.

On to `N[C@@H]1CCN2CCn3c(c(C4CCCCC4)c4ccc(C(=O)O)cc43)-c3cccc1c32` [Compound 274, (4R)-4-amino-15-cyclohexyl-5,6,8,9-tetrahydro-4H-indolo[1′,2′:4,5][1,4]diazepino[6,7,1-ij]quinoline-12-carboxylic acid], for which the IC50 is 2.45 nM.

`CN1CCC2(C1)C(=O)N1CCCn3c(c(C4CCCCC4)c4ccc(C(=O)O)cc43)-c3cccc2c31` (stereo not drawn) [Compound 272, 12-cyclohexyl-1′-methyl-2-oxo-5,6-dihydro-4H-spiro[1,5-diazocino[1,2-a:5,4,3-h′i′]diindole-1,3′-pyrrolidine]-9-carboxylic acid] registered an IC50 of 30 nM. This IC50 lies about 12-fold higher than the previous one.

With `CCN(C)Cc1c(C(=O)N2CCC(N(C)C)CC2)n2c3c(cccc13)-c1c(C3CCCCC3)c3ccc(C(=O)O)cc3n1CCC2` [Compound 324], the IC50 was 6 nM.

The molecule `O=C(NCCN1CCCC1)N[C@@H]1CCN2CCn3c(c(C4CCCCC4)c4ccc(C(=O)O)cc43)-c3cccc1c32` [Compound 297] had an IC50 of 1.67 nM.

On to `CC(=O)N[C@@H]1CCN2CCn3c(c(C4CCCCC4)c4ccc(C(=O)O)cc43)-c3cccc1c32` [Compound 293, (4R)-4-Acetamido-15-cyclohexyl-5,6,8,9-tetrahydro-4H-indolo[1′,2′:4,5][1,4]diazepino[6,7,1-ij]quinoline-12-carboxylic acid], for which inhibition was half-maximal at 1.71 nM (IC50). This IC50 and that of the molecule before are within 1.5-fold of each other.

As to `CC1(C)C(=O)N2CCn3c(c(C4CCCCC4)c4ccc(C(=O)O)cc43)-c3cccc(c32)[C@@H]1N` [Compound 496, (4S)-4-amino-15-cyclohexyl-5,5-dimethyl-6-oxo-5,6,8,9-tetrahydro-4H-indolo[1′,2′:4,5][1,4]diazepino[6,7,1-ij]quinoline-12-carboxylic Acid], the midpoint of inhibition, the IC50, lay at 200 nM.

Molecule `CCN(C)Cc1c(C(=O)N(C)C)n2c3c(cccc13)-c1c(C3CCCCC3)c3ccc(C(=O)NS(=O)(=O)N(C)C)cc3n1CCC2` [Compound 315] gave an IC50 of 2 nM.

With `CN(C)C(=O)c1c(CN2CCOCC2)c2cccc3c2n1CCCn1c-3c(C2CCCCC2)c2ccc(C(=O)O)cc21` [Compound 311], half-maximal inhibition (IC50) was put at 5 nM.

As for `CN(C)C(=O)c1c(CN2CCCCC2)c2cccc3c2n1CCCn1c-3c(C2CCCCC2)c2ccc(C(=O)O)cc21` [Compound 307], half-maximal inhibition (IC50) required 4 nM.

`CN(C)C(=O)c1c(CNC2CCOCC2)c2cccc3c2n1CCCn1c-3c(C2CCCCC2)c2ccc(C(=O)O)cc21` [Compound 308]: the IC50 was determined as 7 nM. This IC50 lies about 1.8-fold higher than the previous one.

With `CC(C)(C)NC(=O)N[C@@H]1CCN2CCn3c(c(C4CCCCC4)c4ccc(C(=O)O)cc43)-c3cccc1c32` [Compound 296, (4R)-4-[(tert-Butylcarbamoyl)amino]-15-cyclohexyl-5,6,8,9-tetrahydro-4H-indolo[1′,2′:4,5][1,4]diazepino[6,7,1-ij]quinoline-12-carboxylic acid], the IC50 amounted to 1.01 nM. This IC50 lies about 6.9-fold lower than the previous one.

On to `CC(C)(C)OC(=O)N[C@H]1CCN2CCn3c(c(C4CCCCC4)c4ccc(C(=O)O)cc43)-c3cccc1c32` [Compound 295, (4S)-4-[(tert-butoxycarbonyl)amino]-15-cyclohexyl-5,6,8,9-tetrahydro-4H-indolo[1′,2′:4,5][1,4]diazepino[6,7,1-ij]quinoline-12-carboxylic acid], for which the IC50 is 8.47 nM.

On to `CCN(C)Cc1c(C(=O)N(C)Cc2ccccc2)n2c3c(cccc13)-c1c(C3CCCCC3)c3ccc(C(=O)O)cc3n1CCC2` [Compound 323], for which the IC50 amounted to 9 nM. The IC50 values of the last two molecules are within 1.5-fold of each other.

Regarding `CCN(CC)[C@@H]1CCN2CCn3c(c(C4CCCCC4)c4ccc(C(=O)O)cc43)-c3cccc1c32` [Compound 290], the half-inhibitory concentration (IC50) came out at 1.62 nM. Against the preceding molecule, the IC50 is about 5.6-fold lower.

Regarding `NC1CCN2CCn3c(c(C4CCCCC4)c4ccc(C(=O)O)cc43)-c3ccc(F)c1c32` (stereo not drawn) [Compound 448], the midpoint of inhibition, the IC50, lay at 5.05 nM.

For `CCC1(CC)C(=O)N2CCCn3c(c(C4CCCCC4)c4ccc(C(=O)O)cc43)-c3ccc(F)c1c32` [Compound 267, 12-cyclohexyl-1,1-diethyl-15-fluoro-2-oxo-1,2,5,6-tetrahydro-4H-[1,5]diazocino[1,2-a:5,4,3-h′i′]diindole-9-carboxylic acid], the IC50 was 10 nM.

With `CC1(C)CN2CCn3c(c(C4CCCCC4)c4ccc(C(=O)O)cc43)-c3cccc(c32)[C@@H]1N` [Compound 497, (4R)-4-amino-15-cyclohexyl-5,5-dimethyl-5,6,8,9-tetrahydro-4H-indolo[1′,2′:4,5][1,4]diazepino[6,7,1-ij]quinoline-12-carboxylic Acid], the half-inhibitory concentration (IC50) is 23 nM. Against the preceding molecule, the IC50 is about 2.3-fold higher.
